ChEMBL document CHEMBL3596183, “Cytoprotective effects of hydrogen sulfide-releasing N-methyl-D-aspartate receptor antagonists are mediated by intracellular sulfane sulfur” (Medchemcomm, 2014)
Calls of active or inactive are those of the source. No cut-off for these calls is given here.

How the values were obtained:
[1] = target: Transient receptor potential cation channel subfamily A member 1 (Rattus norvegicus, UniProt Q6RI86); assay: Activation of TRPA1 in rat astrocytes assessed as induction of Ca2+ influx by calcium green-1/acetoxymethyl ester-based fluorescence assay; type: cell-based
SH-SY5Y = assay: Increase in H2S level in human SH-SY5Y cells at 20 uM after 3 hrs by HSip-1 probe-based fluorescence assay; type: functional, cell-based

Sequence of Transient receptor potential cation channel subfamily A member 1 (Q6RI86 whole entry): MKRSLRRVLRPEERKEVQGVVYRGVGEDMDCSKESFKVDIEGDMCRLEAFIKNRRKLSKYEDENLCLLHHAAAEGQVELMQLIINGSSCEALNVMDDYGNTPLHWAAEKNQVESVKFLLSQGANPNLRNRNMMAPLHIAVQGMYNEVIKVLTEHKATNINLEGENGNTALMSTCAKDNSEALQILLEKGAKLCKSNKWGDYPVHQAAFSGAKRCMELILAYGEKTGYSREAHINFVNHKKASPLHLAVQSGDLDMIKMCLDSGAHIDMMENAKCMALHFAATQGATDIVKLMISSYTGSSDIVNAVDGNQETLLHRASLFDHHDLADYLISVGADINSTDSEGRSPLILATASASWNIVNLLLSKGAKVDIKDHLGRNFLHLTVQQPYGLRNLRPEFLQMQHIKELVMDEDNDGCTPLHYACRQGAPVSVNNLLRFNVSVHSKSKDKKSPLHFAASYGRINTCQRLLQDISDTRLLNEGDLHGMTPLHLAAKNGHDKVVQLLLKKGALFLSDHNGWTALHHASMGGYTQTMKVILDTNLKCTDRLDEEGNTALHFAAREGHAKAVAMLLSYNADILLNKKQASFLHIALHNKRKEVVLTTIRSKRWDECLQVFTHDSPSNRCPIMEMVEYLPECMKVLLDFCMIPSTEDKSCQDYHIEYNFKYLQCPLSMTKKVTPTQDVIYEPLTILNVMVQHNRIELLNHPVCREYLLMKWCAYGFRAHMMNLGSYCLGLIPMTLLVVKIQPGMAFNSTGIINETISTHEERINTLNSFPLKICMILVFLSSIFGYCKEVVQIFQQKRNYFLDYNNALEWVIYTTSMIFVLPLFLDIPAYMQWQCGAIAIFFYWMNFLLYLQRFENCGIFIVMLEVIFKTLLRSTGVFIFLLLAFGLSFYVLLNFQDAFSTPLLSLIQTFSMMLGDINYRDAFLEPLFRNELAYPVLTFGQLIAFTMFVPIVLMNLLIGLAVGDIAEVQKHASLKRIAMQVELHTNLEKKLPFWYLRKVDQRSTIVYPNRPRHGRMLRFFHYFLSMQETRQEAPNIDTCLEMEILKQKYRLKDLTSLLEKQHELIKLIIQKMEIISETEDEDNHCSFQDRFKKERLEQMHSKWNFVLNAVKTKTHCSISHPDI

SMILES: SSS
- EC50 [1]: 0.091 µM

SMILES: CC12CC3CC(C)(C1)CC(NC(=O)c1ccc(-c4cssc4=S)cc1)(C3)C2
- Activity (SH-SY5Y): Active

SMILES: O=C(NC12CC3CC(CC(C3)C1)C2)c1ccc(-c2cssc2=S)cc1
- Activity (SH-SY5Y): Active

SMILES: S1SSSSSSS1 [SULFUR]
- EC50 [1]: 116 µM
